# Data taken from patent US10238713B2, “Cyclic tetrapeptides and therapeutic applications thereof” (LODZ UNIVERSITY OF TECHNOLOGY, priority 2010, dated 2019).
# Non-standard residues stand in square brackets, D forms with d. Residues, ends and D or L forms follow the SMILES beside them. *: point of attachment. Bip = N[C@@H](Cc1ccc(-c2ccccc2)cc1)C(=O)O; Oic = O=C(O)[C@@H]1C[C@@H]2CCCC[C@@H]2N1; β3hW = N[C@H](CC(=O)O)Cc1c[nH]c2ccccc12; Phe(4-F) = N[C@@H](Cc1ccc(F)cc1)C(=O)O; Phe(4-I) = N[C@@H](Cc1ccc(I)cc1)C(=O)O; Phe(4-Me) = Cc1ccc(C[C@H](N)C(=O)O)cc1; hPhe = N[C@@H](CCc1ccccc1)C(=O)O; β3hF = N[C@H](CC(=O)O)Cc1ccccc1; tBu = CC(C)(C)*
# Legend:
# [1] = Solubility in the aqueous culture medium; format: physicochemical
# Description: RPMI-1640 medium (Cibi/Life Technologies, UK), fetal calf serum (FCS, Gibco), DMSO, phytohemagglutinin A (PHA), lipopolysaccharide (LPS) from E. coli strain O111:B4 (Sigma), […]-2,5-diphenyltetrazolium bromide (MTT), SDS and DMF (Sigma). The culture medium consisted of RPMI-1640, 10% addition of FCS, L-glutamine, sodium pyruvate, 2-mercaptoetanol and antibiotics (streptomycin and penicillin). Cyclic tetrapeptides were initially dissolved in DMSO (5 mg/ml), the dissolved in the culture medium to the desired concentration.
# The effects of the peptides on PMBC survival in 24h culture are presented in FIGS. 8A, 8B, 8C, 8D, 8E and 8F. Peptide 4B8M (compound I-A) was included as a reference compound. Appropriate dilutions of DMSO were added to control cultures. […] In the figures, P01=compound I-D, P02=compound I-E, P03=compound I-F, P04=compound I-G, P05=compound I-H, P06=compound I-J, P07=compound I-K, P08=compound I-L, P10a=compound I-M, P10b=compound I-N, P11=compound I-O, P21=compound I-R, P-21b=compound I-Q, P22=compound I-S, P23-2=compound I-U, P24=compound I-V, P25=compound I-X, P25-i=compound I-W, P26=compound I-Y, P27=compound I-Z, P28=compound I-AA, P29=compound I-AB, P30=compound I-AC, P31=compound I-AD, P32=compound I-AE, P33=compound I-AG, P33-b=compound I-AF, P34=compound I-AH, P35=compound I-AI, P00S-b=compound I-AJ, SP00-b=compound I-AL.
# [2] = tested on: mice, carrageenan-induced foot pad edema; experiment: Carrageenan-induced foot-pad edema test; format: in vivo, mouse; conditions: 4 h after carrageenan; peptides 250 μg i.p., DEX 25 μg i.p., 30 min before; FIGS. 17A-17C
# Description: (§1) In this and the air-pouch test, 1.5 mg peptide was dissolved in 300 μl of DMSO, then in 0.9% NaCl to achieve the desired dose (250 μg/0.2 ml or 100 μg/0.2 ml). Carrageenan (Sigma) was dissolved in 0.9% aqueous NaCl (overnight). 50 μl of 2% carrageenan solution was injected intradermally into hind foot pads. The peptides were given in a single 250 μg dose (0.2 ml) per mouse intraperitoneally (i.p.), 30 min before carrageenan administration. Dexamethasone (DEX) (Dexaven, Polfa, Poland), a reference drug, was given i.p. in dose 25 μg per mouse. Control mice were administered i.p. appropriately diluted solvent (DMSO in aqueous NaCl) instead of peptides. The foot pads of “background” (BG) mice were injected with 50 μl of 0.9% aqueous NaCl. Foot pad edema was measured with a spring caliper, 2 h, 3 h and 4 h after administration of carrageenan. The results are presented in FIGS. 17A, 17B and 17C as mean values of the antigen-specific increase of the foot pad thickness measured in 5 mice in each experimental group and expressed in mm ±SE (only results from measurements 4 h following administration of carrageenan are presented in figures). Statistics: FIG. 17A: Control vs: DEX P=0.0001; 4B8M P=0.0001; P25 NS (P=1.0000); P28 NS (P=1.0000); P31 NS (P=0.0528); P35 P=0.0008 (ANOVA of Kruskal-Wallis); FIG. 17B: Statistics: Control vs: P22 NS (P=1.0000); P26 NS (P=1.0000); P27 P=0.0050; P30 P=0.0004; P33-b NS (P=1.0000); SP00-b P=0.0001; P00S-b NS (P=1.0000) (ANOVA of Kruskal-Wallis); FIG. 17C: Statistics: Control vs: P21 P=0.0147; P23-2 P=0.0083; P24 P=0.0001; P29 NS (P=0.9999); P32 P=0.0001; P33 NS (P=0.6806); P34 NS (P=0.1920) (ANOVA).
# [3] = tested on: PHA-induced proliferation of human peripheral blood mononuclear cells (PBMC); experiment: Proliferative response of PBMC to PHA (MTT); format: cell-based; conditions: four-day incubation, FIGS. 9A-9F
# Description: (§2) PBMC were isolated by centrifugation on Ficoll-uropoline gradient (density 1.077 g/ml) (Lymphoprep; PAA Laboratories), at 800×g for 20 min at 4° C. The interphase cells, consisting of lymphocytes (20%) and monocytes (80%) were then washed three times with Hanks' medium and re-suspended in the culture medium at density of 2×10^6 cells/ml.
# The isolated PBMC were distributed into 96-well flat-bottom plates in 100 μl aliquots (2×10^5 cells/well). PHA was used at concentration of 5 μg/ml. The compounds were tested at concentrations of 1, 10 and 100 μg/ml. DMSO at appropriate dilutions served as control. After a four-day incubation in a cell culture incubator, the proliferative response of cells was determined by the colorimetric MTT method (Hansen et al., J. Immunol. Methods, 1989, pp. 203-210). The data are presented as a mean OD value from quadriplicate wells ±standard error (SE). The cultures “Control (−)” contained no mitogen (PHA). The cultures “Control (PHA)” contained PHA but not cyclic tetrapeptides.
# Briefly, 25 μl of MTT (5 mg/ml) stock solution was added per well at the end of cell incubation and the plates were incubated for 3 h in a cell culture incubator. Then, 100 μl of the extraction buffer (20% SDS with 50% DMF, pH 4.7) was added. After additional overnight incubation, the optical density was measured at 550 nm (Dynatech 5000).
# human PBMC = experiment: Toxicity test: PBMC survival in 24 h culture (MTT); conditions: ANOVA, FIGS. 8A-8F (4B8M repeated per figure)
# Description: as §2
# Appropriate dilutions of DMSO in RPMI 1640 medium were used as controls. Cell survival was determined by the MTT colorimetric method (Hansen et al., J. Immunol. Methods, 1989, pp. 203-210). The data are presented as a mean OD value from quadriplicate wells ±standard error (SE). The cultures “Control (−)” contained only cells in the culture medium.
# The assay was performed per Hansen et al., J. Immunol. […] Briefly, 25 μl of MTT (5 mg/ml) stock solution was added per well at the end of cell incubation and the plates were incubated for 3 h in a cell culture incubator. Then, 100 μl of the extraction buffer (20% SDS with 50% DMF, pH 4.7) was added. After additional overnight incubation, the optical density was measured at 550 nm (Dynatech 5000).
# [4] = tested on: mice, carrageenan air pouch; experiment: Carrageenan air-pouch test (exudate cell number); format: in vivo, mouse; conditions: peptides 100 μg i.p. one hour before carrageenan, 24 h; FIGS. 18A-18B
# Description: as §1
# Air pouches were formed by subdermal injection into the dorsal region (in a halothane anesthesia) of 5 cm^3 of air (needle 23G x 11/4, 5 ml syringe). On day 3 the air pouches were given an additional 2 ml of air and an inflammatory process was elicited by an intra-pouch injection of 1% of carrageenan in 0.5 ml of 0.9% aqueous NaCl. The peptides were given i.p. at a dose of 100 μg one hour before carrageenan injection into the air pouch. The mice from the “background” (BG) group were given 0.9% aqueous NaCl i.p. and 0.9% aqueous NaCl into the air pouches. Control mice were given appropriately diluted DMSO i.p. and carrageenan into the air pouches. 24 h after carrageenan injection, the mice were sacrificed by cervical dislocation, the air pouches were supplemented with 1 ml of 0.9% aqueous NaCl and the exudates from the air pouches were aspirated using a syringe. The exudates were diluted with 0.9% aqueous NaCl and the cells were counted in a Bürker hemocytometer. Data are presented in FIGS. 18A and 18B as the mean values from 10 mice/group (cell number×10^6 per mouse) ±SE. Then the cells were centrifuged and 0.1 ml of the supernatant was saved for TNF-α determination (see Determination of TNF-α activity, above). The cell pellets were used to perform smears on microscopic glasses, which were stained with Giemsa and May-Grünwald reagents for evaluation of mast cell degranulation. Cell analysis was performed by a histologist using a light microscope and 1000× magnification. The content of intact and degranulated mast cells is given in percentage (mean values from 10 mice/group) ±SE. Statistics: FIG. 18A: BG vs Control P=0.0000; Control vs: DEX P=0.0034; 4B8M P=0.0005; P22 NS (P=0.7275); P26 P=0.0032; P27 NS (P=0.0659); P35 NS (P=1.0000) (ANOVA of Kruskal-Wallis); FIG. 18B: Control vs: P21 NS (P=0.322); P23-2 P=0.0020; P24 P=0.0001; P25 P=0.0418; P28 NS (P=0.3502); P29 NS (P=0.0582); P30 P=0.0006; P31 P=0.0078; P32 P=0.0340; P33 NS (P=0.9993); P34 NS (p=0.0566) (ANOVA).
# splenocytes = experiment: Toxicity test on splenocytes (24 h, MTT); format: cell-based, mouse; conditions: 100 μg/ml (printed 100 μg/m for I-C)
# Description: Cell survival was determined by MTT colorimetric method. The results were presented as mean optical density (OD) at 550 nm from 4 wells. The viability of cells in respective compound concentrations was compared to appropriate DMSO control groups (100% survival), corresponding to respective compound concentrations.
# [5] = tested on: concanavalin A-induced mouse splenocyte proliferation; experiment: Proliferative response of splenocytes to concanavalin A (MTT); format: cell-based
# Description: Spleens were pressed against a plastic screen into 0.83% NH4Cl solution to lyse erythrocytes (5 min incubation at room temperature). The cells were then washed twice with Hanks' medium, passed through glass wool column to remove debris, and re-suspended in the culture medium, referred to below as the “culture medium”, consisting of RPMI-1640, supplemented with 10% of fetal calf serum, L-glutamine, sodium pyruvate, 2-mercaptoethanol, streptomycin and penicillin (100 μg/ml). The cells were then distributed into 96-well flat-bottom tissue culture plates (Nunc) at a density of 2×10^5 cells/100 μl/well. Con A (2.5 μg/ml) was added to induce cell proliferation. The compounds were added to the cultures at doses of 1-100 μg/ml. After a three-day incubation, cell proliferation was determined using the colorimetric MTT method (Hansen M B, J Immunol Methods, 1989, 119, 203-210). The results were presented as the mean optical density (OD) at 550 nm ±SE from quadriplicate determinations (wells).
Compound,solubility in the aqueous culture medium [1],"foot pad edema (increase of foot pad thickness), P vs Control [2]","PHA-induced PBMC proliferation, P vs DMSO at appropriate dilution ([3]; 10 μg/ml)","PHA-induced PBMC proliferation, P vs DMSO at appropriate dilution ([3]; 100 μg/ml)","PBMC survival, P vs DMSO at appropriate dilution (human PBMC; 10 μg/ml)","PBMC survival, P vs DMSO at appropriate dilution (human PBMC; 100 μg/ml)","air pouch exudate cell number, P vs Control [4]",toxicity to splenocytes (splenocytes) [%],effect on concanavalin A-induced splenocyte proliferation ([5]; 100 μg/ml),effect on concanavalin A-induced splenocyte proliferation ([5]; lower concentrations (below 100 μg/ml))
O=C1C[C@H](Cc2c[nH]c3ccccc23)NC(=O)[C@@H]2CCCN2C(=O)[C@@H]2CCCN2C(=O)[C@H](Cc2ccccc2)N1 [I-AE] (cyclo(FPP[β3hW])),incomplete solubility,0.0001,0.0127,0.0023,0.9954,0.9984,0.0340,–,–,–
CC(C)(C)OC[C@@H]1NC(=O)[C@@H]2CCCN2C(=O)[C@H](Cc2ccccc2)NC(=O)C[C@H](Cc2ccccc2)NC1=O [I-AJ] (cyclo(FPS(tBu)[β3hF])),incomplete solubility,1.0000,1.0000,0.7035,0.9962,0.9250,–,–,–,–
O=C1N[C@@H](Cc2ccccc2)CC(=O)N2CCC[C@H]2C(=O)N2CCC[C@H]2C(=O)N[C@H]1Cc1ccccc1 [I-B] (cyclo(F[β3hF]PP)),–,–,–,–,–,–,–,30,weak antiproliferative effect,no such effect was observed
O=C1C[C@H](Cc2ccccc2)NC(=O)[C@@H]2CCCN2C(=O)[C@@H]2CCCN2C(=O)[C@H](Cc2ccc(I)cc2)N1 [I-W] (cyclo(PP[β3hF][Phe(4-I)])),incomplete solubility,–,0.0001,0.0001,0.9992,0.9602,–,–,–,–
O=C1C[C@H](Cc2ccccc2)NC(=O)[C@@H]2C[C@@H]3CCCC[C@@H]3N2C(=O)[C@@H]2CCCN2C(=O)[C@H](Cc2ccccc2)N1 [I-Y] (cyclo(FP[Oic][β3hF])),–,1.0000,0.0001,0.0001,0.9992,0.0001,0.0032,–,–,–
Cc1ccc(C[C@@H]2NC(=O)C[C@H](Cc3ccccc3)NC(=O)[C@@H]3CCCN3C(=O)[C@@H]3CCCN3C2=O)cc1 [I-Z] (cyclo(PP[β3hF][Phe(4-Me)])),–,0.0050,0.9121,0.8195,0.9997,0.0236,0.0659,–,–,–

# The next lines start with results.
solubility in the aqueous culture medium [1],Compound,"foot pad edema (increase of foot pad thickness), P vs Control [2]","PHA-induced PBMC proliferation, P vs DMSO at appropriate dilution ([3]; 10 μg/ml)","PHA-induced PBMC proliferation, P vs DMSO at appropriate dilution ([3]; 100 μg/ml)","PBMC survival, P vs DMSO at appropriate dilution (human PBMC; 10 μg/ml)","PBMC survival, P vs DMSO at appropriate dilution (human PBMC; 100 μg/ml)","air pouch exudate cell number, P vs Control [4]",toxicity to splenocytes (splenocytes) [%],effect on concanavalin A-induced splenocyte proliferation ([5]; 100 μg/ml),effect on concanavalin A-induced splenocyte proliferation ([5]; lower concentrations (below 100 μg/ml))
incomplete solubility,O=C1C[C@H](Cc2ccccc2)NC(=O)[C@@H]2CCCN2C(=O)[C@@H]2CCCN2C(=O)[C@H](Cc2ccc(-c3ccccc3)cc2)N1 [I-AH] (cyclo([Bip]PP[β3hF])),0.1920,–,0.001861,0.0005,0.0001,0.0566,–,–,–
incomplete solubility,O=C1C[C@H](Cc2ccccc2)NC(=O)[C@@H]2CCCN2C(=O)[C@@H]2CCCN2C(=O)[C@H](CCc2ccccc2)N1 [I-AI] (cyclo(PP[β3hF][hPhe])),0.0008,–,1.0000,0.0222,1.0000,1.0000,–,–,–
incomplete solubility,O=C1C[C@H](Cc2ccccc2)NC(=O)[C@@H]2CCCN2C(=O)[C@@H]2CCCN2C(=O)[C@H](Cc2ccc(F)cc2)N1 [I-X] (cyclo(PP[β3hF][Phe(4-F)])),1.0000,–,1.0000,0.8597,0.0001,0.0418,–,–,–
